# Target: T1, rat mGluR5 (Rattus norvegicus, UniProt P31424)
# T1 construct: expressed in transfected cells; host or cells: human embryonic kidney (HEK) cells
# Assay: Potentiation of glutamate response, Ca2+ fluorescence (FDSS) in HEK cells transfected with rat mGluR5
# Format: cell-based
# Details: Table 1; potentiation of mGluR5 response to glutamate; read-out: EC50
# Method: Human embryonic kidney (HEK) cells transfected with rat mGluR5 were plated in clear bottom assay plates for assay in a Functional Drug Screening System (FDSS). The cells were loaded with a Ca^2+-sensitive fluorescent dye (e.g., Fluo-4), and the plates were washed and placed in the FDSS instrument. After establishment of a fluorescence baseline for twelve seconds, the compounds of the present invention were added to the cells, and the response in cells was measured. Five minutes later, an mGluR5 agonist (e.g., glutamate, 3,5-dihydroxyphenylglycine, or quisqualate) was added to the cells, and the response of the cells was measured. Potentiation of the agonist response of mGluR5 by the compounds in the present invention was observed as an increase in response to non-maximal concentrations of agonist (here, glutamate) in the presence of compound compared to the response to agonist in the absence of compound.
# The above described assay operated in two modes. In the first mode, a range of concentrations of the present compounds were added to cells, followed by a single fixed concentration of agonist. If a compound acted as a potentiator, an EC50 value for potentiation and a maximum extent of potentiation by the compound at this concentration of agonist was determined by non-linear curve fitting. In the second mode, several fixed concentrations of the present compounds were added to various wells on a plate, followed by a range of concentrations of agonist for each concentration of present compound; the EC50 values for the agonist at each concentration of compound were determined by non-linear curve fitting. A decrease in the EC50 value of the agonist with increasing concentrations of the present compounds (a leftward shift of the agonist concentration-response curve) is an indication of the degree of mGluR5 potentiation at a given concentration of the present compound. An increase in the EC50 value of the agonist with increasing concentrations of the present compounds (a rightward shift of the agonist concentration-response curve) is an indication of the degree of mGluR5 antagonism at a given concentration of the present compound. The second mode also indicates whether the present compounds also affect the maximum response to mGluR5 to agonists.
# T1 sequence (P31424 21-1203): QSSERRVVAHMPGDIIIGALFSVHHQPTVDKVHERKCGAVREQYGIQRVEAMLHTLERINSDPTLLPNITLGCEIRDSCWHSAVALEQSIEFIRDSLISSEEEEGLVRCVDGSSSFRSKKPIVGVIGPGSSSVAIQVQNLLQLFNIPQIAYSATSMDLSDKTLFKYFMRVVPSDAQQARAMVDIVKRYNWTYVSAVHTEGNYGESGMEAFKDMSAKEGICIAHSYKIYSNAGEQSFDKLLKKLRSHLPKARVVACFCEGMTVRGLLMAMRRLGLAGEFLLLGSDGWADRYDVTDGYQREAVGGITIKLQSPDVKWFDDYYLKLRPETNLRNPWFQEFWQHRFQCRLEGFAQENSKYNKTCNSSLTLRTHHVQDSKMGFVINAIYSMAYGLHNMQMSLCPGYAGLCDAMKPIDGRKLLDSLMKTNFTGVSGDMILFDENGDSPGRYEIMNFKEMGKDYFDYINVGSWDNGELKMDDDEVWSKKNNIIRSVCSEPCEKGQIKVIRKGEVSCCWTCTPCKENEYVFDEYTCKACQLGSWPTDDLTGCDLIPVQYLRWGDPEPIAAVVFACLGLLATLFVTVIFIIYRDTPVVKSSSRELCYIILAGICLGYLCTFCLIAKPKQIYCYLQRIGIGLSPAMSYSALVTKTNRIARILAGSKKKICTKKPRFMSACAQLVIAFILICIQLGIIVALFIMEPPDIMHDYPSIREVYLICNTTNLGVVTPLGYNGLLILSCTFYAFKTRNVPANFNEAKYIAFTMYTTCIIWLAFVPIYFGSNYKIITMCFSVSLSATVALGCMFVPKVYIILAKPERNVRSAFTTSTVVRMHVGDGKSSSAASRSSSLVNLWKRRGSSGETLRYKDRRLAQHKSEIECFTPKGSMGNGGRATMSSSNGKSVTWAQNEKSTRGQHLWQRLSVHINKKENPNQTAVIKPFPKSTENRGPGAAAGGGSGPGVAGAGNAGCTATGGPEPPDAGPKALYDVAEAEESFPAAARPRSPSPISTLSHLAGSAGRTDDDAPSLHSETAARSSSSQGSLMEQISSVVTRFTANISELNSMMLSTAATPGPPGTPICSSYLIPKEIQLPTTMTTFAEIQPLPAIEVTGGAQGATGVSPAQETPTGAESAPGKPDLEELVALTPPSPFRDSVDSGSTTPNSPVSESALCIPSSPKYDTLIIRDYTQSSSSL
row,SMILES,EC50
1,O=C(Nc1ccccc1)c1ccc(OCc2ccccc2)nc1 [Example 1.2a.14],380 nM
2,O=C(Nc1ccc(F)cc1F)c1ccc(OCc2cccc(F)c2)nc1 [Example 1.2c.21],76 nM
3,O=C(Nc1ccccn1)c1ccc(OCc2ccc(F)cc2)nc1 [Example 1.2d.1],1300 nM
4,C[C@@H](NC(=O)c1ccc(OCc2cccc(F)c2)nc1)C1CC1 [Example 1.2c.15],94 nM
5,O=C(Nc1nccs1)c1ccc(OCc2ccccc2)nc1 [Example 1.2a.18],520 nM
6,CC(C)(C)CCNC(=O)c1ccc(OCc2cccnc2)nc1 [Example 2.3c.1],2900 nM
7,Cc1nc(OCc2ccncc2)ccc1C(=O)NCCC(C)(C)C [Example 1.2n.1],3400 nM
8,O=C(NC1CCCCC1)c1ccc(OCc2ccc(F)cc2)nc1 [Example 2.3a.6],750 nM
9,O=C(NC1CCC1)c1ccc(OCc2ccccc2)nc1 [Example 1.2a.9],340 nM
10,O=C(NC1CCCCC1)c1ccc(OCc2ccccc2F)nc1 [Example 1.2f.3],110 nM
11,O=C(NC1CCCCC1)c1ccc(OCc2ccsc2)nc1 [Example 2.3a.8],120 nM
12,CC(C)(C)NC(=O)c1ccc(OCc2cccc(F)c2)nc1 [Example 1.2c.5],400 nM
13,C[C@@H](NC(=O)c1ccc(OCc2cccc(F)c2)nc1)C1CCCCC1 [Example 1.2c.18],190 nM
14,CC(C)(C)NC(=O)c1ccc(OCc2ccccc2)nc1 [Example 1.2a.6],230 nM
15,CCCCOc1ccc(C(=O)Nc2ccc(F)cn2)cn1 [Example 1.2j.4],1500 nM
16,O=C(NCC1CCOCC1)c1ccc(OCc2ccccc2)nc1 [Example 1.2a.21],3900 nM
17,O=C(Nc1cccc(F)c1)c1ccc(OCc2cccc(F)c2)nc1 [Example 1.2c.10],460 nM
18,CC(C)(C)CCNC(=O)c1ccc(OCc2ccc(F)cc2)nc1 [Example 1.2d.4],690 nM
19,O=C(NCC1CCOCC1)c1ccc(OCc2cccc(F)c2)nc1 [Example 1.2c.17],1100 nM
20,O=C(NC1CCCCC1)c1ccc(OCC2CCCC2)nc1 [Example 2.3a.4],710 nM
21,Cc1nc(OCc2cccc(F)c2)ccc1C(=O)NC1CCCCC1 [Example 1.2m.3],610 nM
22,C[C@@H](NC(=O)c1ccc(OCc2ccncc2)nc1)C1CC1 [Example 1.2i.5],4800 nM
23,CCCCOc1ccc(C(=O)NC2CCCCC2)cn1 [Example 1.2j.2],2400 nM
24,O=C(NC1CCOCC1)c1ccc(OCc2cccc(F)c2)nc1 [Example 1.2c.20],1600 nM
25,O=C(NC1CCCCC1)c1ccc(OCc2cccc(F)c2)nc1 [Example 1.2c.6],40 nM
26,O=C(Nc1ccccn1)c1ccc(OCc2cccnc2)nc1 [Example 1.2h.1],2900 nM

# The next lines start with the values.
row,EC50,SMILES
1,92 nM,CC(C)(C)CCNC(=O)c1ccc(OCc2ccccc2)nc1 [Example 1.2a.8]
2,100 nM,Cc1cccc(COc2ccc(C(=O)NC3CCCCC3)cn2)c1 [Example 1.2g.3]
3,1600 nM,Cc1csc(NC(=O)c2ccc(OCc3ccccc3)nc2)n1 [Example 1.2a.20]
4,450 nM,O=C(NCC1CC1)c1ccc(OCc2ccccc2)nc1 [Example 1.2a.7]
5,≥ 10000 nM,CCCCOc1ccc(C(=O)NC(C)(C)C)cn1 [Example 1.2j.3]
6,210 nM,O=C(Nc1ccc(F)cc1F)c1ccc(OCc2ccc(F)cc2)nc1 [Example 1.2d.2]
7,240 nM,Cc1cccc(COc2ccc(C(=O)Nc3ccccn3)cn2)c1 [Example 1.2g.1]
8,1100 nM,CC(C)(C)CCNC(=O)c1ccc(OCc2cc(F)cc(F)c2)nc1 [Example 1.2e.1]
9,2200 nM,CCCCOc1ccc(C(=O)NC2CCCCCC2)cn1 [Example 1.2j.7]
10,510 nM,O=C(Nc1ccc(F)cn1)c1ccc(OCc2ccc(F)cc2)nc1 [Example 1.2d.3]
11,1800 nM,Cc1ccc(COc2ccc(C(=O)NC3CCC3)cn2)cc1 [Example 2.3b.1]
12,920 nM,O=C(NCC1CC1)c1ccc(OCc2cccc(F)c2)nc1 [Example 1.2c.14]
13,260 nM,O=C(Nc1ccc(F)cc1)c1ccc(OCc2cccc(F)c2)nc1 [Example 1.2c.11]
14,140 nM,O=C(NC1CCCCC1)c1ccc(OCc2ccccc2)nc1 [Example 1.2a.24]

# Same assay, conditions: Table 2; potentiation of mGluR5 response to glutamate; read-out: EC50
row,SMILES,EC50
1,O=C(NC1CCCC1)c1ccc(OCc2ccccc2)nc1,180 nM
2,C[C@@H](NC(=O)c1cnc(OCc2ccncc2)cc1C(F)(F)F)C(C)(C)C,3900 nM
3,CC1CCCCC1NC(=O)c1ccc(OCc2ccccc2)nc1 (stereo not shown),36 nM
4,Cc1cc(OCc2ccncc2)ncc1C(=O)NCCC(C)(C)C,1700 nM
5,C[C@@H](NC(=O)c1ccc(OCc2cccc(F)c2)nc1)C(C)(C)O,150 nM
6,O=C(NCC1CCC1)c1ccc(OCc2ccccc2)nc1,130 nM
7,C[C@H](CN1CCC(F)(F)C1)NC(=O)c1ccc(OCc2cccc(F)c2)nc1,> 10000 nM
8,COc1nc(OCc2cccc(F)c2)ccc1C(=O)NCCC(C)(C)C,> 10000 nM
9,Cc1cc(OCc2ccncc2)ncc1C(=O)Nc1ccc(F)cc1F,490 nM
10,CC(NC(=O)c1ccc(OCc2cccc(F)c2)nc1)C1CCCCO1 (stereo not shown),> 10000 nM
11,CC(COC(C)(C)C)NC(=O)c1ccc(OCc2cccc(F)c2)nc1 (stereo not shown),4200 nM
12,CC(NC(=O)c1ccc(OCc2cccc(F)c2)nc1)C(C)(C)CO (stereo not shown),1000 nM
13,CC(Oc1ccc(C(=O)N[C@H](C)C(C)(C)C)cn1)c1cccc(F)c1 (stereo partly shown),> 10000 nM
14,COc1ccc(COc2ccc(C(=O)N[C@H](C)C(C)(C)C)cn2)cc1,5400 nM
15,Cc1cc(OCc2ccncc2)ncc1C(=O)N[C@H](C)C1CCCCC1,610 nM

# Further lines, results first:
row,EC50,SMILES
1,3900 nM,CC(C)(C)CCNC(=O)c1cnc(OCc2cccc(F)c2)c(C#N)c1
2,3400 nM,COc1ccccc1NC(=O)c1ccc(OCc2ccccc2)nc1
3,1300 nM,CC[C@@H](C)NC(=O)c1ccc(OCc2cccc(F)c2)nc1
4,690 nM,Cc1cc(OCc2cccc(F)c2)ncc1C(=O)N[C@H](C)C(C)(C)C
5,1100 nM,CC(C)(C)CC(C)(C)NC(=O)c1ccc(OCc2cccc(F)c2)nc1
6,3600 nM,C[C@@H](NC(=O)c1cnc(OCc2ccncc2)c(Br)c1)C1CCCCC1
7,21 nM,CC(C)[C@@H](C)NC(=O)c1ccc(OCc2cccc(F)c2)nc1
8,3600 nM,Cc1cc(C(=O)N[C@H](C)C2CCCCC2)cnc1OCc1ccncc1
9,> 10000 nM,CC1(O)CC(NC(=O)c2ccc(OCc3cccc(F)c3)nc2)C1 (stereo not shown)
10,1900 nM,COC[C@@H](NC(=O)c1ccc(OCc2cccc(F)c2)nc1)C(C)(C)C
11,1900 nM,COc1cc(C(=O)NCCC(C)(C)C)cnc1OCc1cccc(F)c1
12,> 10000 nM,COc1ccccc1COc1ccc(C(=O)N[C@H](C)C(C)(C)C)cn1
13,> 10000 nM,C[C@@H](NC(=O)c1ccc(OCc2cccc(F)c2)[nH]c1=O)C(C)(C)C
14,3200 nM,CC(C)(C)[C@@H](CO)NC(=O)c1ccc(OCc2cccc(F)c2)nc1
15,> 10000 nM,C[C@]1(O)CCC[C@@H]1NC(=O)c1ccc(OCc2cccc(F)c2)nc1
16,660 nM,CC(NC(=O)c1ccc(OCc2cccc(F)c2)nc1)C(C)(C)O (stereo not shown)
17,3000 nM,COCC(C)NC(=O)c1ccc(OCc2cccc(F)c2)nc1 (stereo not shown)
18,> 10000 nM,C[C@@H](NC(=O)c1cnc(OCc2ccncc2)c(C(F)(F)F)c1)C1CCCCC1
19,> 10000 nM,CC(C)(C)OCCNC(=O)c1ccc(OCc2cccc(F)c2)nc1
20,520 nM,O=C(Nc1ccccc1O)c1ccc(OCc2ccccc2)nc1
21,5100 nM,COc1cc(F)cc(COc2ccc(C(=O)N[C@H](C)C(C)(C)C)cn2)c1
22,100 nM,O=C(N[C@@H](C1CC1)C(F)(F)F)c1ccc(OCc2cccc(F)c2)nc1
23,1700 nM,C[C@@H](NC(=O)c1ccc(OCc2cccc(F)c2)nc1)C1CCOC(C)(C)C1 (stereo partly shown)
24,2.2 nM,C[C@@H](NC(=O)c1ccc(OCc2cccc(F)c2)nc1)C(C)(C)C
25,5200 nM,COc1c(F)cccc1COc1ccc(C(=O)N[C@H](C)C(C)(C)C)cn1
26,> 10000 nM,C[C@@H](NC(=O)c1cnc(OCc2cccc(F)c2)c(C(F)(F)F)c1)C1CCCCC1
27,960 nM,Cc1cc(OCc2cccc(F)c2)ncc1C(=O)NCCC(C)(C)C
28,5300 nM,Cc1cc(C(=O)NCCC(C)(C)C)cnc1OCc1ccncc1
29,2800 nM,O=C(N[C@H]1CCCC[C@@H]1O)c1ccc(OCc2ccccc2)nc1
30,3700 nM,CC(NC(=O)c1ccc(OCc2cccc(F)c2)nc1)C1CCCOC1 (stereo not shown)

# Same assay, conditions: mGluR5 expressing cell line
row,Glu max,SMILES
1,91%,"C[C@@H](NC(=O)c1ccc(OCc2ccccc2)nc1)C1CCCCC1 [Example 1.2a.2, (R)-6-(Benzyloxy)-N-(1-cyclohexylethyl)nicotinamide]"

# Same assay, conditions: mGluR5 expressing cell line, potentiation; read-out: EC50
row,EC50,SMILES
1,40 nM,"C[C@@H](NC(=O)c1ccc(OCc2ccccc2)nc1)C1CCCCC1 [Example 1.2a.2, (R)-6-(Benzyloxy)-N-(1-cyclohexylethyl)nicotinamide]"

# Same assay, conditions: read-out: EC50 as an mGluR5 potentiator
row,EC50,SMILES
1,> 10000 nM,C[C@H](NC(=O)c1ccc(OCc2ccccc2)nc1)C1CCCCC1 [(S)-6-(benzyloxy)-N-(1-cyclohexylethyl)nicotinamide]

# Reference: patent publication US20110183980A1, “O-BENZYL NICOTINAMIDE ANALOGS AS MGLUR5 POSITIVE ALLOSTERIC MODULATORS” (priority 2009, published 2011)
